Measurements reported in ChEMBL document CHEMBL1201862, “PubChem BioAssay data set” (2004).
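Test compounds were applied to cells in 96-well plates for 48 hours at 5 doses. At the GI50, growth is halved.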 The source made the active and inactive calls. No stated cut-off is given here; in the data, active = GI50 up to about 1.1 µM and inactive = higher.

Key:
Experiment in all cases: NCI-60 cell line screen, 48 h
[1] = test system: 786-0
[2] = test system: A498
[3] = test system: A549
[4] = test system: ACHN
[5] = test system: BT-549
[6] = test system: CAKI-1
[7] = test system: CCRF-CEM
[8] = test system: COLO 205
[9] = test system: DU-145
[10] = test system: EKVX
[11] = test system: HCC 2998
[12] = test system: HCT-116
[13] = test system: HCT-15
[14] = test system: HL-60
[15] = test system: HOP-62
[16] = test system: HOP-92
[17] = test system: HT-29
[18] = test system: Hs-578T
[19] = test system: IGROV-1
[20] = test system: K562
[21] = test system: KM12
[22] = test system: LOX IMVI
[23] = test system: M14
[24] = test system: MCF7
[25] = test system: MDA-MB-231
[26] = test system: MDA-MB-435
[27] = test system: MDA-N
[28] = test system: MOLT-4
[29] = test system: Malme-3M
[30] = test system: NCI-H226
[31] = test system: NCI-H23
[32] = test system: NCI-H460
[33] = test system: NCI-H522
[34] = test system: NCI/ADR-RES
[35] = test system: OVCAR-3
[36] = test system: OVCAR-4
[37] = test system: OVCAR-5
[38] = test system: OVCAR-8
[39] = test system: PC-3
[40] = test system: RPMI-8226
[41] = test system: RXF 393
[42] = test system: SF-268
[43] = test system: SF-295
[44] = test system: SF-539
[45] = test system: SK-MEL-28
[46] = test system: SK-MEL-2
[47] = test system: SK-MEL-5
[48] = test system: SK-OV-3
[49] = test system: SN12C
[50] = test system: SNB-19
[51] = test system: SW-620
[52] = test system: T47D
[53] = test system: TK-10
[54] = test system: U-251
[55] = test system: UACC-257
[56] = test system: UACC-62
[57] = test system: UO-31
[58] = test system: SNB-75

`O=C(O)C(Cc1ccccc1)N1C(=O)c2ccccc2C1=O` (centres undefined) was tested, and the GI50 [1] was > 100 µM (inactive), the GI50 [2] was > 100 µM (inactive) and the GI50 [3] was > 100 µM (inactive). For the same compound, the GI50 [4] was > 100 µM (inactive), the GI50 [5] was > 100 µM (inactive) and the GI50 [6] was > 100 µM (inactive). For the same compound, the GI50 [7] was 4.01 µM (inactive), the GI50 [8] was > 100 µM (inactive) and the GI50 [9] was > 100 µM (inactive). The GI50 [10] was 93.1 µM (inactive), the GI50 [11] was > 100 µM (inactive) and the GI50 [12] was > 100 µM (inactive). The GI50 [13] was over 100 µM, the GI50 [14] was 0.0472 µM (active) and the GI50 [15] was > 100 µM (inactive). For the same compound, the GI50 [16] was 29.2 µM (inactive), the GI50 [17] was > 100 µM (inactive) and the GI50 [18] was > 100 µM (inactive). For the same compound, the GI50 [19] was > 100 µM (inactive), the GI50 [20] was > 100 µM (inactive) and the GI50 [21] was > 100 µM (inactive). For the same compound, the GI50 [22] was > 100 µM (inactive), the GI50 [23] was > 100 µM (inactive) and the GI50 [24] was > 100 µM (inactive). The GI50 [25] was > 100 µM (inactive), the GI50 [26] was > 100 µM (inactive) and the GI50 [27] was > 100 µM (inactive). The GI50 [28] was > 100 µM (inactive), the GI50 [29] was > 100 µM (inactive) and the GI50 [30] was > 100 µM (inactive). For the same compound, the GI50 [31] was > 100 µM (inactive), the GI50 [32] was > 100 µM (inactive) and the GI50 [33] was > 100 µM (inactive). For the same compound, the GI50 [34] was > 100 µM (inactive), the GI50 [35] was > 100 µM (inactive) and the GI50 [36] was > 100 µM (inactive). The GI50 [37] was > 100 µM (inactive), the GI50 [38] was > 100 µM (inactive) and the GI50 [39] was > 100 µM (inactive). For the same compound, the GI50 [40] was > 100 µM (inactive), the GI50 [41] was > 100 µM (inactive) and the GI50 [42] was > 100 µM (inactive). For the same compound, the GI50 [43] was > 100 µM (inactive), the GI50 [44] was > 100 µM (inactive) and the GI50 [45] was 14.4 µM (inactive). For the same compound, the GI50 [46] was > 100 µM (inactive), the GI50 [47] was > 100 µM (inactive) and the GI50 [48] was > 100 µM (inactive). For the same compound, the GI50 [49] was > 100 µM (inactive), the GI50 [50] was > 100 µM (inactive) and the GI50 [51] was 18.7 µM (inactive). For the same compound, the GI50 [52] was > 100 µM (inactive), the GI50 [53] was > 100 µM (inactive) and the GI50 [54] was > 100 µM (inactive). For the same compound, the GI50 [55] was > 100 µM (inactive), the GI50 [56] was > 100 µM (inactive) and the GI50 [57] was > 100 µM (inactive).

With `COc1cc(/C=C2\CC3C4CC[C@H]5C[C@@H](O)CC[C@]5(C)C4CC[C@]3(C)C2=O)cc(OC)c1OC` (some centres undefined) the GI50 [1] was 16 µM (inactive), the GI50 [2] was 12.1 µM (inactive) and the GI50 [3] was 7.18 µM (inactive). For the same compound, the GI50 [4] was 11.8 µM (inactive), the GI50 [5] was 24.8 µM (inactive) and the GI50 [6] was 9.4 µM (inactive). For the same compound, the GI50 [7] was 7.36 µM (inactive), the GI50 [8] was 5.93 µM (inactive) and the GI50 [9] was 27.2 µM (inactive). For the same compound, the GI50 [10] was 12 µM (inactive), the GI50 [11] was 7.13 µM (inactive) and the GI50 [12] was 7.19 µM (inactive). For the same compound, the GI50 [13] was 9.59 µM, the GI50 [14] was 5.75 µM (inactive) and the GI50 [15] was 13 µM (inactive). The GI50 [16] was 26.5 µM (inactive), the GI50 [17] was 9.44 µM (inactive) and the GI50 [18] was 14.4 µM (inactive). The GI50 [19] was 36.6 µM (inactive), the GI50 [20] was 4.68 µM (inactive) and the GI50 [21] was 9.75 µM (inactive). For the same compound, the GI50 [22] was 12.6 µM (inactive), the GI50 [23] was 17.4 µM (inactive) and the GI50 [24] was 4.25 µM (inactive). The GI50 [25] was 22.1 µM (inactive), the GI50 [26] was 13.5 µM (inactive) and the GI50 [27] was 19.9 µM (inactive). The GI50 [28] was 4.82 µM (inactive), the GI50 [29] was 19.5 µM (inactive) and the GI50 [30] was 13.6 µM (inactive). The GI50 [31] was 20.4 µM (inactive), the GI50 [32] was 10.7 µM (inactive) and the GI50 [33] was 7.93 µM (inactive). The GI50 [34] was 16.7 µM (inactive), the GI50 [36] was 4.61 µM (inactive) and the GI50 [37] was 27 µM (inactive). For the same compound, the GI50 [38] was 15.8 µM (inactive), the GI50 [39] was 5.48 µM (inactive) and the GI50 [40] was 4.17 µM (inactive). For the same compound, the GI50 [41] was 13.9 µM (inactive), the GI50 [42] was 24 µM (inactive) and the GI50 [43] was 4.69 µM (inactive). For the same compound, the GI50 [44] was 22.6 µM (inactive), the GI50 [45] was 32.7 µM (inactive) and the GI50 [46] was 14.9 µM (inactive). For the same compound, the GI50 [47] was 9.29 µM (inactive), the GI50 [48] was 11.5 µM (inactive) and the GI50 [49] was 15.2 µM (inactive). For the same compound, the GI50 [50] was 17.5 µM (inactive), the GI50 [58] was 14.4 µM (inactive) and the GI50 [51] was 24.8 µM (inactive). The GI50 [52] was 3.7 µM (inactive), the GI50 [53] was 27.6 µM (inactive) and the GI50 [54] was 8.26 µM (inactive). The GI50 [55] was 21.8 µM (inactive), the GI50 [56] was 17.6 µM (inactive) and the GI50 [57] was 4.08 µM (inactive).
